In test [1] the target is T1, 5-HT1A receptor (Rattus norvegicus, UniProt P19327).
T1 sequence (P19327 1-422): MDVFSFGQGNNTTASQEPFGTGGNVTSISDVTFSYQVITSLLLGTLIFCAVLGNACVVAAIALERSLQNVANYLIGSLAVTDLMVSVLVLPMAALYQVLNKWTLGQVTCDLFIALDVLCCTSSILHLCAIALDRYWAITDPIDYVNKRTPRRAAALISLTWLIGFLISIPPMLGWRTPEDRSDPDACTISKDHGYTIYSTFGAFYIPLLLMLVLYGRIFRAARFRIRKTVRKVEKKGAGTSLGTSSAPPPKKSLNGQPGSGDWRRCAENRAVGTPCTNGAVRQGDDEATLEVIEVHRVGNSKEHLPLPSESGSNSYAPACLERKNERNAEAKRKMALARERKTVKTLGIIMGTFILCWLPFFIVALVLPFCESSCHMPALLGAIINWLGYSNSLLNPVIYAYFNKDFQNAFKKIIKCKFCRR
As to conditions: for inhibition at 1 µM: pH 7.7, read-out: % Inhibition at 1 μM, 5-HT1A Receptor Binding.
Method: The assay is carried out as follows:
Hippocampal tissue from male Sprague Dawley rats is dissected and homogenized on ice in 40 volumes of buffer A (50 mM Tris-HCl, pH=7.7) using a Polytron homogenizer at setting 5 for 3×15-second bursts. The homogenate is then centrifuged at 20,000 rpm (RC5-B; 50,000 g), and the supernatant is discarded. The pellet is resuspended in 40 volumes of the same buffer and incubated at 37° C. for 10 minutes to aid in the removal of endogenous serotonin. The homogenate is then centrifuged (as above) and the supernatant discarded. The pellet is then resuspended in 100 volumes of buffer B (50 mM Tris HCl, pH=7.7 containing 0.1% ascorbate, 10 μM pargyline and 4 mM CaCl2) and sonicated. An aliquot is taken for protein determination by the Lowry method and the remainder stored frozen at -70° C. until used.
At the end of the incubation, 3 mL of cold buffer A are added to each tube, and the contents rapidly filtered through Whatman GF/B glass-fiber filters. The filters are then rapidly washed 2 times with 3 mL of the same buffer, placed in scintillation vials, and shaken for 15 minutes with 10 mL of Hydrofluor (National Diagnostics) scintillation cocktail. The vials are then counted in a Packard 460CD scintillation counter.
Specific binding is defined as total binding less binding in the presence of excess unlabeled serotonin (1 μM). Binding in the presence of various concentrations of test drug is expressed as a percent of specific binding when no drug is present. […] Ki (inhibition constant) for the test drug is then calculated by the formula: [formula]

Test [2] relates to anxiety. As to conditions: cited from earlier work; for efficacy in the treatment of anxiety neuroses (in words): clinical, compared with diazepam.
Test [3] concerns 5-HT1A receptors. Particulars: compared with buspirone; cited from earlier work.

In general, inhibition refers to the percentage by which the read-out fell short of the control. Regarding `O=C1CC2(CCCC2)CC(=O)N1CCCCN1CCN(c2ncccn2)CC1` [Buspirone], in test [1], the inhibition at 1 µM was 94%.

`O=C1c2ccccc2S(=O)(=O)N1CCCCN1CCN(c2nccc3ccncc23)CC1` [Example 1, 2-[4-[4-(2,7-Naphthyridin-1-yl)-1-piperazinyl]butyl]-1,2-benzoisothiazol-3(2H)-one 1,1-Dioxide]: the “affinity for the 5-HT1A receptor site (in words)” value in test [1] (conclusion from Table 1) is “high affinity”. Besides, in test [1], the inhibition at 1 µM was determined as 100%.

Consider `CC1(C)CC(=O)N(CCCCN2CCN(c3ncccn3)CC2)C(=O)C1` [Gepirone, 4,4-dimethyl-1-[4-[4-(2-pyrimidinyl)-1-piperazinyl]butyl]-2,6-piperidinedione], for which, in test [2], the “anxiolytic activity in clinical trials (in words)” value is on record as “potent anxiolytic drugs” and the “efficacy in the treatment of anxiety neuroses (in words)” value is “comparable to the benzodiazepine diazepam”.

Turning to `O=C1c2ccccc2S(=O)(=O)N1CCCCN1CCN(c2ncccn2)CC1` [ipsapirone], the “anxiolytic activity in clinical trials (in words)” value in test [2] is on record as “potent anxiolytic drugs”. Also, the “selectivity for 5-HT1A receptors relative to buspirone (in words)” value in test [3] is on record as “higher degree of selectivity for 5-HT1A receptors than buspirone”.

For the molecule `Cc1nc2sccn2c(=O)c1CCN1CCC(=C(c2ccc(F)cc2)c2ccc(F)cc2)CC1` [ritanserin], the “efficacy in the treatment of anxiety neuroses (in words)” value in test [2] was “comparable to the benzodiazepine diazepam”.

Values taken from US4859671A, “2-substituted 1,2-benzisothiazol-3(2H)-one 1,1-dioxide useful as an anxiolytic agent” (American Home Products Corporation, priority 1988, dated 1989).
